Values quoted from earlier work, collected in patent US20220257469A1, “PHARMACEUTICAL UNIT DOSE SYSTEMS FOR ORAL DRY SOLUTION AND SUSPENSION” (Brillian Pharma Inc., priority 2019, published 2022).

Details: liquid suspension, in five days, not refrigerated

## O=C(O)[C@H]1/C(=C/CO)O[C@@H]2CC(=O)N21 [Clavulanic acid]
  loss of potency: 30-40%
